Experimental data published in US7569608B2, “Pentanoic acid derivatives” (Ono Pharmaceutical Co., Ltd., priority 1993, dated 2009).

Tests used:
GABAA receptor [1] = assay: Experiment 2: regeneration of GABAA receptor responses in reactive astrocytes; assay type: cell-based, rat; settings: 14 DIV after serial passages, control 8 ± 6
Experimental: (§1) Preparation of astrocyte cultures: After removing the meninges, isolated cerebrum of neonatal rats (age: day 1) were placed on frosted glass-slides and minced. The sample was then digested with trypsin (0.25%) and DNase 1 (0.02%) and suspended in 10% FCS-DMEM before centrifugation. After resuspending in 10% FCS-DMEM, the suspension was dispersed in dishes and cultured at 37° C. under 5% CO2 atmosphere. Non-adherent cells were removed from the dishes after agitation/washing on post-culture 24 hours. Note that the adherent cell population was composed of more than 95% of GFAP-positive cells.
(§2) GFAP contents and GABAA receptor responses: The improvement effects on astrocyte functions were evaluated from the following indices: inhibition derived from the increase in GFAP content and inhibition in the disappearance of GABAA receptor responses. Thus, sodium valproate (Sigma Chem. Co., U.S.A.) was added on 1 DIV followed by whole-cell mode voltage-clamp method on 7 DIV-to measure the GABA (3×10^−5 M)-induced Cl^− current. The Cl^− current was taken as an index for the GABA response. Furthermore, GFAP contents were determined by the ELISA method on 11 DIV.
Astrocytes were prepared and cultured in a manner similar to Experiment 1. On 14 DIV, reactive astrocytes were subjected to a serial passage (10^5 cells/dish). The thus adherent reactive astrocytes were washed, and transferred to culture media containing the present effectively developed compound(s) or invention. On 14 DIV after serial passages, GABAA receptor responses were tested according to procedures designated in Experiment 1.

neurons = assay: Experiment 3: suppression of cell death in neurons-astrocytes co-culture; assay type: cell-based, rat; settings: 3 mM, neurons co-cultured with astrocytes
Experimental: Astrocytes, prepared in a manner similar to that of Experiment 1, were cultured for 14 days. Previously prepared neurons (3×10^4 cells/well), isolated from cerebrum of 19-day old fetus rats, were added to the cultured astrocytes (3×10^5 cells/well) and allowed to grow. During the culture process, survival rates and neuronal dendrite extension/ramification of neurons were observed. Note that, sodium valproate (3 mM) and astrocytes were initially added to the neurons concomitantly, and freshly prepared similar culture media containing the invented compound (3 mM) were subsequently added at 3˜4-day intervals.

astrocytes = assay: Experiment 1: GFAP contents of cultured astrocytes (ELISA); assay type: cell-based, rat; settings: added on 1 DIV, ELISA on 11 DIV, ratio of the control group (control 100.0)
Experimental: as §1, §2
The GFAP contents were expressed as a ratio of the control group.

[2] = system: experimental brain ischemia model; assay: Experiment 4: experimental brain ischemia, conditional avoidance experiment; assay type: in vivo, rat; settings: 300 mg/kg i.p. once daily for 4 days after deligation; 10 trials within 2 days; ischemic reference 2.8±0.8, normal 6.1±0.7, sham 4.8±0.8
Experimental: Establishing the experimental brain ischemia model: Vertebral arteries of pentobarbital-anesthetized rats were bilaterally coagulated, and a period of 7 days was allowed for recovery. The previously surgically exposed bilateral common carotid arteries of ischemic rats were mechanically ligated for 20 min. Immediately after deligation, the rats were once daily injected i.p. with sodium valproate (300 mg/kg) for 4 consecutive days. On deligation day 5˜6, mobility aspects in the conditional avoidance experiment were monitored.
Mobility aspects of the conditional avoidance experiment: The step-up model of the dark/light box was used. Animals placed in the dark section of the grid-floored box with the connecting door closed were allowed to accustomed to the environment for 1 minute. The door was then opened for 10 seconds. Rats that stepped up to the lighted section via the opened door were considered positive in the conditional avoidance test. Animals categorized as negative in the test were placed in the dark section with the door closed for 10 seconds prior to subjecting them to electric foot shock at 2 mA for 50 seconds. […] The above procedure was repeated 5 trials per day at 30-minutes intervals. A total of 10 trials within 2 days were attempted.

GABAA receptor [3] = assay: Experiment 1: GABAA receptor responses of cultured astrocytes (GABA-induced Cl- current, whole-cell voltage-clamp); assay type: cell-based, rat; settings: added on 1 DIV, measured on 7 DIV, GABA 3×10^−5 M-induced Cl− current, control 90 ± 43
Experimental: as §1, §2

Row | SMILES | GABAA receptor responses (means ± S.E.) (GABAA receptor [1]; 0.3 mM) | GABAA receptor responses (means ± S.E.) (GABAA receptor [1]; 1.0 mM) | GABAA receptor responses (means ± S.E.) (GABAA receptor [1]; 3.0 mM) | further results
1 | CCCC[C@@H](CC)C(=O)O (racemic) [Example 11] | 35 ± 15 pA | 190 ± 134 pA | 281 ± 174 pA | –
2 | CCCC(CCCCCC(F)F)C(=O)[O-].[Na+] (centres unmarked) [Example 2(2)] | 527 ± 201 pA | – | – | GABAA receptor responses (means ± S.E.) (GABAA receptor [1]; 0.1 mM): 114 ± 81 pA
3 | CCCC(CCCF)C(=O)[O-].[Na+] (centres unmarked) [Example 2(5)] | – | – | 326 ± 148 pA | –
4 | CCCC(CCCCF)C(=O)[O-].[Na+] (centres unmarked) [Example 2(6)] | 184.0 ± 118.1 pA | – | 528.0 ± 160.2 pA | –
5 | CCCC(CCCC(F)(F)F)C(=O)[O-].[Na+] (centres unmarked) [Example 2(8)] | – | 470.6 ± 124.9 pA | 808.6 ± 325.4 pA | –
6 | CCCC(CCCCCC(F)(F)F)C(=O)[O-].[Na+] (centres unmarked) [Example 2(9)] | 236.4 ± 85.5 pA | – | – | –
7 | CCCC(CCCCC(F)(F)F)C(=O)[O-].[Na+] (centres unmarked) [Example 2(10)] | 800.0 ± 415.6 pA | – | – | –
8 | CCCC(CCC(F)(F)F)C(=O)[O-].[Na+] (centres unmarked) [Example 2(12)] | – | 672 ± 242 pA | 1109 ± 227 pA | –
9 | CCCCCCCC(CCC)C(=O)O (centres unmarked) [Example 2-PNA, 2-propylnonanic acid] | 380 ± 124 pA | – | – | GABAA receptor responses (means ± S.E.) (GABAA receptor [1]; 0.03 mM): 85 ± 41 pA; GABAA receptor responses (means ± S.E.) (GABAA receptor [1]; 0.1 mM): 107 ± 50 pA
10 | CCCC(CCCCC(F)F)C(=O)[O-].[Na+] (centres unmarked) [Example 2] | 193 ± 103 pA | 628 ± 227 pA | – | –
11 | CCCC(CCCCCCF)C(=O)[O-].[Na+] (centres unmarked) [Example 7(1)] | 260.0 ± 47.3 pA | – | – | –
12 | CCCC(CCCCCCCF)C(=O)[O-].[Na+] (centres unmarked) [Example 7(2)] | 730.0 ± 226.4 pA | – | – | –
13 | CCCC(CCC1CCCCC1)C(=O)[O-].[Na+] (centres unmarked) [Example 7(4)] | 163.0 ± 60.4 pA | – | – | –
14 | CCCC(CCCCc1ccccc1)C(=O)[O-].[Na+] (centres unmarked) [Example 7(8)] | – | 59.0 ± 20.6 pA | – | –
15 | CCCC(CCCOc1ccccc1)C(=O)[O-].[Na+] (centres unmarked) [Example 7(9)] | 512.1 ± 233.1 pA | – | 226.3 ± 60.5 pA | –
16 | CCCC(CCCCOC)C(=O)[O-].[Na+] (centres unmarked) [Example 7(14)] | – | – | 285.7 ± 103.6 pA | –
17 | CCCC(CCC(C)C)C(=O)[O-].[Na+] (centres unmarked) [Example 7(16)] | 105 ± 65 pA | 417 ± 140 pA | – | –
18 | CCCC(CCCCC(C)C)C(=O)[O-].[Na+] (centres unmarked) [Example 7(17)] | 259.0 ± 83.7 pA | – | – | –
19 | CCCC(CCCC(C)C)C(=O)[O-].[Na+] (centres unmarked) [Example 7(18)] | – | 658.6 ± 440.7 pA | – | –
20 | CCCC(C(=O)[O-])C1CCCCC1.[Na+] (centres unmarked) [Example 7(26)] | – | – | 344.7 ± 342.5 pA | –
21 | C=CCC(CCC)C(=O)[O-].[Na+] (centres unmarked) [Example 7(28)] | – | – | 122 ± 44 pA | –
22 | CCCCCC(CCC)C(=O)[O-].[Na+] (centres unmarked) [Example 7(30)] | 233 ± 90 pA | 675 ± 201 pA | – | –
23 | CCCCC(CCC)C(=O)[O-].[Na+] (centres unmarked) [Example 7(31)] | 51 ± 28 pA | 565 ± 278 pA | 590 ± 180 pA | –
24 | CCCCCCCCC(CCC)C(=O)[O-].[Na+] (centres unmarked) [Example 7(32)] | – | – | – | GABAA receptor responses (means ± S.E.) (GABAA receptor [1]; 0.1 mM): 48 ± 20 pA
25 | CCCCCCC(CCC)C(=O)[O-].[Na+] (centres unmarked) [Example 7(33)] | 1260 ± 521 pA | – | – | GABAA receptor responses (means ± S.E.) (GABAA receptor [1]; 0.03 mM): 40 ± 23 pA; GABAA receptor responses (means ± S.E.) (GABAA receptor [1]; 0.1 mM): 237 ± 69 pA
26 | CCCCCOC(CCC)C(=O)[O-].[Na+] (centres unmarked) [Example 7(37)] | 139 ± 52 pA | – | 595 ± 190 pA | –
27 | CCCC(CCCCCF)C(=O)[O-].[Na+] (centres unmarked) [Example 7] | 213.1 ± 150.1 pA | 661.7 ± 306.3 pA | – | –
28 | CCCC(Cl)(CCC)C(=O)OC [Example 9] | – | – | 467 ± 187 pA | –
29 | CC/C=C(\CCC)C(=O)[O-].[Na+] [Example 13] | – | – | 171 ± 55 pA | –
30 | CCCC(CCC)C(=O)[O-].[Na+] [VPA, sodium valproate] | 37 ± 26 pA | 193 ± 141 pA | 1263 ± 303 pA | Survival rates (on 22 days) (neurons; control <10%): 60-70%^; dendrite generation in the neurons (neurons; not observed in control): detected; Ratio of increase in GFAP contents (astrocytes; 0.3 mM): 30.6%; Ratio of increase in GFAP contents (astrocytes; 1.0 mM): 36.3%; Ratio of increase in GFAP contents (astrocytes; 3.0 mM): 44.3%; conditional avoidance response, count (frequencies) [2]: 5.3±0.8; GABAA receptor responses (means ± S.E.) (GABAA receptor [3]; 0.3 mM): 254 ± 106 pA; GABAA receptor responses (means ± S.E.) (GABAA receptor [3]; 1.0 mM): 432 ± 98 pA; GABAA receptor responses (means ± S.E.) (GABAA receptor [3]; 3.0 mM): 1301 ± 156 pA
